Measurements published in ChEMBL document CHEMBL1201862, “PubChem BioAssay data set” (2004).
Active and inactive are the calls of the source.

What was measured:
[1] = target: Peroxisome proliferator-activated receptor gamma/Nuclear receptor coactivator 1 (Homo sapiens, UniProt P37231); assay: (§1) TR-FRET dose response biochemical High Throughput Screening assay for agonists of the steroid receptor coactivator 1 (SRC-1) recruitment by the peroxisome proliferator-activated receptor gamma (PPAR gamma): non-selective agonists. [Related pubchem assays (depositor defined):AID1300, AID1808, AID504735, AID631]; assay type: protein assay
[2] = target: Peroxisome proliferator-activated receptor gamma/Nuclear receptor coactivator 3 (Homo sapiens, UniProt P37231); assay: as §1, with “3 (SRC-3)” for “1 (SRC-1)”, “assays: 1301 (Confirmation screen.), 1048 (Primary screen.)]” for “assays (depositor defined):AID1300, AID1808, AID504735, AID631]”; assay type: functional
[3] = target: Peroxisome proliferator-activated receptor gamma/Nuclear receptor coactivator 2 (Homo sapiens, UniProt P37231); assay: TR-FRET dose response biochemical High Throughput Screening assay for agonists of the steroid receptor coactivator 2 (SRC-2) recruitment by the peroxisome proliferator-activated receptor gamma (PPAR gamma): non-selective agonists. [Related pubchem assays: 1297, 1032 ]; assay type: functional
[4] = target: Botulinum neurotoxin type A (Clostridium botulinum (strain Hall / ATCC 3502 / NCTC 13319 / Type A), UniProt P0DPI1); assay: High-throughput multiplex microsphere dose response for inhibitors of toxin protease, specifically Botulinum neurotoxin light chain A protease, compounds from Cherry Pick 02.; assay type: functional; details: read-out: EC50_MICROM
Chain of Botulinum neurotoxin type A (P0DPI1 2-448 limits assumed): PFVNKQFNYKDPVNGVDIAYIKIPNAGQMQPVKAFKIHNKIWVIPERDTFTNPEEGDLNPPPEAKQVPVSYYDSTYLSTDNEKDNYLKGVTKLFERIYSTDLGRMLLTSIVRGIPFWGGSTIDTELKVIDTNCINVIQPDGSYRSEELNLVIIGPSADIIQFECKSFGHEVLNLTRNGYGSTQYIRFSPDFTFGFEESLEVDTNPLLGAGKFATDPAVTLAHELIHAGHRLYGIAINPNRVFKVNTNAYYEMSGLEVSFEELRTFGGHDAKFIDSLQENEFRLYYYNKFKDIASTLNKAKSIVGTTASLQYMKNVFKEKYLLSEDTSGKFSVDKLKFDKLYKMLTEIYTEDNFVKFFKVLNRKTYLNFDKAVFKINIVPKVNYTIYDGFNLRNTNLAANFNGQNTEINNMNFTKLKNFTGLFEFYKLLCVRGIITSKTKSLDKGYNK

[5] = target: Botulinum neurotoxin type F (Clostridium botulinum, UniProt P30996); assay: High-throughput multiplex microsphere dose response for inhibitors of toxin protease, specifically Botulinum neurotoxin light chain F protease, compounds from Cherry Pick 02.; assay type: functional; details: read-out: EC50_MICROM
Chain of Botulinum neurotoxin type F (P30996 1-436 limits assumed): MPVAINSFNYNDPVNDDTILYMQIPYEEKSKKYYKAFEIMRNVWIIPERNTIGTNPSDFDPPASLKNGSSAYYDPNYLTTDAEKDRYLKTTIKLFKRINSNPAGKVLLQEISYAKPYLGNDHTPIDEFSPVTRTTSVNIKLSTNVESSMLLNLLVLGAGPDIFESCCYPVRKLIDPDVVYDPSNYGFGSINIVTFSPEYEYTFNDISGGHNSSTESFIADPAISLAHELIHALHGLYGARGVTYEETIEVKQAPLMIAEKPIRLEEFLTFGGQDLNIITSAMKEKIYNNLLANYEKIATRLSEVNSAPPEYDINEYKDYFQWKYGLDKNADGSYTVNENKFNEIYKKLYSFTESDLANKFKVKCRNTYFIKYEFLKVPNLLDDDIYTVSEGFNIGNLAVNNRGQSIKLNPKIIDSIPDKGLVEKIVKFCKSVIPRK

[6] = target: Protein S100-A4 (Homo sapiens, UniProt P26447); assay: S100A4-myosin IIA binding inhibitor potency, dose response, biochemical, fluorescence polarization, cherry-picked hits (AID 687001); assay type: functional
Chain of Protein S100-A4 (P26447 whole entry): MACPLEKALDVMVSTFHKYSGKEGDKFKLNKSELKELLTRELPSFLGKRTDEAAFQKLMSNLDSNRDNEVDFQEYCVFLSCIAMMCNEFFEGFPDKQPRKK

[7] = target: Tyrosine-protein kinase ABL1 (Homo sapiens, UniProt P00519); assay type: functional
[8] = target: Vascular endothelial growth factor receptor 2 (Homo sapiens, UniProt P35968); assay type: functional
[9] = target: Sphingosine 1-phosphate receptor 2 (Homo sapiens, UniProt O95136); assay: Late-stage fluorescence-based dose-response cell-based counterscreen assay to identify agonists of the Sphingosine 1-Phosphate Receptor 3 (S1P3): Sphingosine 1-Phosphate Receptor 2 (S1P2) agonist assay.; assay type: functional
[10] = target: T1, Sphingosine 1-phosphate receptor 4 (Homo sapiens, UniProt O95977); assay: Late-stage fluorescence-based dose-response cell-based counterscreen assay to identify agonists of the Sphingosine 1-Phosphate Receptor 3 (S1P3): Sphingosine 1-Phosphate Receptor 4 (S1P4) agonist assay.; assay type: functional
T1 sequence (O95977 whole entry): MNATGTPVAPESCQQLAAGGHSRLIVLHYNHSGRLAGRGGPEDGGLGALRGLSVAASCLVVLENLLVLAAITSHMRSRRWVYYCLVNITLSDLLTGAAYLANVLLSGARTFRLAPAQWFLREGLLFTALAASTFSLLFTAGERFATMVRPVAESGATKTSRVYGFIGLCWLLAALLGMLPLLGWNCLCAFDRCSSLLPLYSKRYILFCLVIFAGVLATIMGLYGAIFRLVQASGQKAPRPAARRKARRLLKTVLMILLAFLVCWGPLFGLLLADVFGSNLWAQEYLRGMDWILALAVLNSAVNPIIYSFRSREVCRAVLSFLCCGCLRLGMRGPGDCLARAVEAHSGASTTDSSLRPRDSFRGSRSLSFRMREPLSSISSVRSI

[11] = target: T2, DNA dC->dU-editing enzyme APOBEC-3A (Homo sapiens, UniProt P31941); assay: APOBEC3A DNA deaminase inhibitors, dose response, biochemical (AID 504722); assay type: functional
T2 sequence (P31941 whole entry): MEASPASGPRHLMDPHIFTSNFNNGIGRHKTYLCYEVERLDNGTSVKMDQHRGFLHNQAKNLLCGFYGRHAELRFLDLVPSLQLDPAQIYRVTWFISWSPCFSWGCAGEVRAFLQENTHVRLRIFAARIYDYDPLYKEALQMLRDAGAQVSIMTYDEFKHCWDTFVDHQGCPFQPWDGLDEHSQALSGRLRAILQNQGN

[12] = target: T3, DNA dC->dU-editing enzyme APOBEC-3G (Homo sapiens, UniProt Q9HC16); assay: Dose Response confirmation of small molecule APOBEC3G DNA Deaminase Inhibitors via a fluorescence-based single-stranded DNA deaminase assay. [Related pubchem assays (depositor defined):AID493012, AID493028]; assay type: functional
T3 sequence (Q9HC16 whole entry): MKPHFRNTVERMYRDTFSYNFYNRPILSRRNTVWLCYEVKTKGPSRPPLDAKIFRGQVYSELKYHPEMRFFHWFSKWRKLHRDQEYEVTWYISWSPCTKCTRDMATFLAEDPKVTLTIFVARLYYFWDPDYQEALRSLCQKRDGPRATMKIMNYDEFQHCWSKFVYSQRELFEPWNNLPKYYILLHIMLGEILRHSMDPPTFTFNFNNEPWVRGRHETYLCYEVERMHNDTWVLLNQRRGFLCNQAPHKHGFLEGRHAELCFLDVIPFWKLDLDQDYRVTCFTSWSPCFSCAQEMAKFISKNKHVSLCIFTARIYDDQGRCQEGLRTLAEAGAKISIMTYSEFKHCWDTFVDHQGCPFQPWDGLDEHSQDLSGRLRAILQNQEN

[13] = target: T2, DNA dC->dU-editing enzyme APOBEC-3A; assay: SAR analysis of small molecule inhibitors of APOBEC3A DNA Deaminase via a fluorescence-based single-stranded DNA deaminase assay - Set 2.; assay type: functional; details: read-out: IC50_Mean
[14] = target: T3, DNA dC->dU-editing enzyme APOBEC-3G; assay: SAR analysis of small molecule inhibitors of APOBEC3G DNA Deaminase via a fluorescence-based single-stranded DNA deaminase assay - Set 2.; assay type: functional; details: read-out: IC50_Mean
[15] = target: T4, Mitochondrial peptide methionine sulfoxide reductase (Bos taurus, UniProt P54149); assay: Absorbance-based biochemical high throughput dose response assay for activators of Methionine sulfoxide reductase A (MsrA).; assay type: functional
T4 sequence (P54149 whole entry): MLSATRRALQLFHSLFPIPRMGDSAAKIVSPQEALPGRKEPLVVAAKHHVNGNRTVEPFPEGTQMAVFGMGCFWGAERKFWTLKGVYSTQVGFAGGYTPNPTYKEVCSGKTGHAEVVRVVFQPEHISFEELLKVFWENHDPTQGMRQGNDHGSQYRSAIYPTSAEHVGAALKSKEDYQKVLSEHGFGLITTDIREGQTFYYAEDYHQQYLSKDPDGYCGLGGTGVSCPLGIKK

[16] = target: T3, DNA dC->dU-editing enzyme APOBEC-3G; assay: APOBEC3G deaminase inhibitors, SAR follow-up, biochemical, fluorescence, single-stranded DNA substrate (AID 602136); assay type: functional; details: read-out: IC50_Mean
[17] = target: T2, DNA dC->dU-editing enzyme APOBEC-3A; assay: SAR analysis of small molecule inhibitors of APOBEC3A DNA Deaminase via a fluorescence-based single-stranded DNA deaminase assay.; assay type: functional; details: read-out: IC50_Mean
[18] = target: Eukaryotic elongation factor 2 kinase (Homo sapiens, UniProt O00418); assay type: functional
Chain of Eukaryotic elongation factor 2 kinase (O00418 whole entry): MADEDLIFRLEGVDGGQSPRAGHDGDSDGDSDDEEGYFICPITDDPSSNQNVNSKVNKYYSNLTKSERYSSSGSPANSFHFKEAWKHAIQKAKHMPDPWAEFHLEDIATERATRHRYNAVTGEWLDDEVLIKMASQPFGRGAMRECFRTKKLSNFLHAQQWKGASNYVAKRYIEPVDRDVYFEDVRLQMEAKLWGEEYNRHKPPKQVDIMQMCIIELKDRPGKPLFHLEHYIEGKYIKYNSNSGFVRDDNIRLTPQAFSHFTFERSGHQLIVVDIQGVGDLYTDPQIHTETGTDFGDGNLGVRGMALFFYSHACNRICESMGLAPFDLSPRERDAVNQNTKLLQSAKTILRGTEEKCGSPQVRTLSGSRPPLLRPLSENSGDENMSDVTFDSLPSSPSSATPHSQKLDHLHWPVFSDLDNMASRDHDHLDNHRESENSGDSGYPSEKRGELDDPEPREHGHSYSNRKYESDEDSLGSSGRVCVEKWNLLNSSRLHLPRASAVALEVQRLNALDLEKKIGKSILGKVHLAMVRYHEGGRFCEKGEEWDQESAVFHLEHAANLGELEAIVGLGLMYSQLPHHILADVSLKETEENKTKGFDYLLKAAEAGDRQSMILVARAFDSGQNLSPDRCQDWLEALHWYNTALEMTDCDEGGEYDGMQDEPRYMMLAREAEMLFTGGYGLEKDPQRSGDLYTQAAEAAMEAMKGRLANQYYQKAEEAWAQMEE

[19] = target: Testis-specific serine/threonine-protein kinase 2 (Homo sapiens, UniProt Q96PF2); assay type: functional;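 further: part of the Navigating the Kinome panel, target entry STK22B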
Chain of Testis-specific serine/threonine-protein kinase 2 (Q96PF2 whole entry): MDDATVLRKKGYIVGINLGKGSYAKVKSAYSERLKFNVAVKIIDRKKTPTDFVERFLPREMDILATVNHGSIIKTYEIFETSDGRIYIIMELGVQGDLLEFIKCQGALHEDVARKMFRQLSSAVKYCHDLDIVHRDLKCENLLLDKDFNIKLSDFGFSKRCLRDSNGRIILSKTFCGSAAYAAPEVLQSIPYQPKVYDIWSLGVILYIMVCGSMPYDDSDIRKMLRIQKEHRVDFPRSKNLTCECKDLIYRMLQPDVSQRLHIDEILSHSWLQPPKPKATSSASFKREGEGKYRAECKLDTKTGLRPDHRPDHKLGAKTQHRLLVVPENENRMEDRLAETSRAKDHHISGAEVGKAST

[20] = target: Cell division cycle 7-related protein kinase (Homo sapiens, UniProt O00311); assay type: functional;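 further: value obtained from a kinome-wide kinase panel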
[21] = target: Protein kinase C gamma type (Homo sapiens, UniProt P05129); assay type: functional
[22] = target: Dual specificity tyrosine-phosphorylation-regulated kinase 3 (Homo sapiens, UniProt O43781); assay type: functional;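 further: measured as one member of a broad kinase panel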
Chain of Dual specificity tyrosine-phosphorylation-regulated kinase 3 (O43781 whole entry): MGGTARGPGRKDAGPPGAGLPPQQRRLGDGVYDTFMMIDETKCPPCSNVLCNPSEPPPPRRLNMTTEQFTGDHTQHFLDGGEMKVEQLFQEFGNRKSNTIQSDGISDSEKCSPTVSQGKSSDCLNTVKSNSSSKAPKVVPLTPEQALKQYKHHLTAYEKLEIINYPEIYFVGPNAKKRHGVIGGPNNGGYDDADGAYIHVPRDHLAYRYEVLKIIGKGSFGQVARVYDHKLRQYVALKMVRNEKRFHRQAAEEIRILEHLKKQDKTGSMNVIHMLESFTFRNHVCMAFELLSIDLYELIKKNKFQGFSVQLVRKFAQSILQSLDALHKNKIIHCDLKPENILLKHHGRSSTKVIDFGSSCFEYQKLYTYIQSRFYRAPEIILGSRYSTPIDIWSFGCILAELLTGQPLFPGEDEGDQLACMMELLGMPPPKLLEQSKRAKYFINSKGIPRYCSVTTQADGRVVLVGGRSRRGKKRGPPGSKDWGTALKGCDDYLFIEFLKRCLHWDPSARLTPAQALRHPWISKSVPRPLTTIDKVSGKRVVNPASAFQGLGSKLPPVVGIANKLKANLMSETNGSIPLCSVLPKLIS

[23] = target: MAP kinase-activated protein kinase 3 (Homo sapiens, UniProt Q16644); assay type: functional;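 further: value comes from a kinome-wide profiling panel in which MAPKAPK3 is one of the panel members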
Chain of MAP kinase-activated protein kinase 3 (Q16644 whole entry): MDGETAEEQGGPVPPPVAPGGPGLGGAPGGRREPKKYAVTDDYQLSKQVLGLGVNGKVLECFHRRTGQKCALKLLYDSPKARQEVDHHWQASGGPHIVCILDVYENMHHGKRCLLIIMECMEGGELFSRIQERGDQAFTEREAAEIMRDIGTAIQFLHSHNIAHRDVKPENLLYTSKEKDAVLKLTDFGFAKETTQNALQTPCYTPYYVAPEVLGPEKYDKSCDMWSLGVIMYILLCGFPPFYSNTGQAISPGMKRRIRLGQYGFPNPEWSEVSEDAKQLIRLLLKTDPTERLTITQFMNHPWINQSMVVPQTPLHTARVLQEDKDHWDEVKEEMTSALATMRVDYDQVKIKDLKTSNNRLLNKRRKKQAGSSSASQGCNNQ

[24] = target: Dual specificity tyrosine-phosphorylation-regulated kinase 4 (Homo sapiens, UniProt Q9NR20); assay type: functional
Chain of Dual specificity tyrosine-phosphorylation-regulated kinase 4 (Q9NR20 whole entry): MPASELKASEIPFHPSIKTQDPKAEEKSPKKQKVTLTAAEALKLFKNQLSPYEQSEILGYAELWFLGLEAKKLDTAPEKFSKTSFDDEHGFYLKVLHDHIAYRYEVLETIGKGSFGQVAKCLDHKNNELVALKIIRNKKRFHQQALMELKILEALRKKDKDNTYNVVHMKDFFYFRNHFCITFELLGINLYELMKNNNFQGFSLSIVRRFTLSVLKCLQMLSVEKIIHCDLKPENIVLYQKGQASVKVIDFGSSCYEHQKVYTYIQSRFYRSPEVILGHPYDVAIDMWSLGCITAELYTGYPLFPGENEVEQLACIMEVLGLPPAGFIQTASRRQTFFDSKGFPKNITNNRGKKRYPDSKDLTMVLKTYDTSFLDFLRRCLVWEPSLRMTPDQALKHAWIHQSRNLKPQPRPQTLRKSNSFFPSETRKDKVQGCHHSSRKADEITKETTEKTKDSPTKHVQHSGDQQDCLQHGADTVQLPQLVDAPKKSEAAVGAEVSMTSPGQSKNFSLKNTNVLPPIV

[25] = target: Lymphokine-activated killer T-cell-originated protein kinase (Homo sapiens, UniProt Q96KB5); assay type: functional;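 further: value comes from a kinase panel screen in which TOPK was one of the panel members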

Cc1cc2ccccc2n1CCNC(=O)c1ccc(S(=O)(=O)N2CCCCC2)cc1
EC50 [1]: 5.91 µM (active)
EC50 [2]: 13.6 µM (not active)
EC50 [3]: 6.53 µM (active)
EC50 [4]: 1 µM (active)
EC50 [5]: > 20 µM (inactive)
AC50 [6]: 6.69 µM (active)

N#Cc1cnc2c(Br)cnn2c1N
Ki [7]: 79.4 µM (active)
Ki [8]: 100 µM (active)

COc1ccc(-c2cc(C(=O)N(C3CCCCC3)C3CCCCC3)no2)cc1OC
EC50 [9]: > 50 µM (inactive)
EC50 [10]: > 50 µM (inactive)

Sc1nnc(NCCc2ccccc2)s1
IC50 [11]: > 100 µM (inactive)
IC50 [12]: 1.2 µM (active)
IC50 [13]: > 99 µM (inactive)
IC50 [14]: 0.695 µM (active)
EC50 [15]: > 104 µM (inactive)
IC50 [16]: 0.835 µM (active)
IC50 [17]: > 99 µM (inactive)

Cc1ccc(NC(=O)c2ccc(CN3CCN(C)CC3)cc2)cc1Nc1nccc(-c2cccnc2)n1 [IMATINIB]
Ki [18]: > 3.98 µM (inactive)
Ki [19]: > 1.58 µM (inactive)
Ki [20]: > 1.26 µM (inactive)
Ki [21]: > 7.94 µM (inactive)
Ki [22]: > 6.31 µM (inactive)
Ki [23]: > 10 µM (inactive)
Ki [24]: > 7.94 µM (inactive)
Ki [25]: > 10 µM (inactive)
